Laboratory results published in publication PMC11050599, “Novel Tetracyclic Azaphenothiazines with the Quinoline Ring as New Anticancer and Antibacterial Derivatives of Chlorpromazine” (International Journal of Molecular Sciences, 2024).
Converted amounts (≈) assume the structure as drawn. Read-outs that look alike come from different tables or passages of the source. Each block holds one compound with its values, some of them ahead of it.

Tests used:
PC3 (prostate cancer) = test: MTT assay, PC3 cells; assay type: cell-based, human; details: for IC50: Homo sapiens, read-out: IC50 PC3; for SI PC3: SI = IC50 for normal cell line (HaCaT)/IC50 cancer cell line
Protocol: (§1) The human cell lines, such as A549 (lung cancer), MDA-MB-231 (breast cancer), MiaPaca-2 (pancreatic cancer), PC3 (metastatic prostate cancer), HCT-116 (colon carcinoma), and HaCaT (immortalized keratinocytes), were sourced from the American Type Culture Collection (ATCC) in Rockville, USA. Culturing conditions varied as follows: HCT116 cells were cultured in MEM (ThermoSci, Waltham, MA, USA), A549, MDA-MB-231, MiaPaca, HaCaT cells in DMEM High Glucose and PC3 cells were cultured in RPMI (Biowest SAS, Nuaillé, France). The growth medium consisted of 10% fetal bovine serum (FBS, Sigma-Aldrich, St. Louis, MO, USA), 20 mM HEPES (Biowest, Nuaillé, France), and antibiotics (100 U/mL of penicillin and 100 μg/mL of streptomycin) from Gibco, Grand Island, NY, USA. […] These compounds were added to 96-well plates containing study cells (1 × 10^4 cells per well) and incubated for 72 h. […] Cell absorbance results were incorporated into the formula for calculating the relative MTT level (%), enabling the assessment of cell viability following exposure to the test compounds. The cell viability percentage represents the MTT reduction in cells treated with the test compounds compared to the control sample, where only the medium was added to the cells.

HCT116 cells [1] = test: Cell cycle analysis by flow cytometry, HCT116; assay type: cell-based, human; details: IC50, 24 h, compared to the control
Protocol: In brief, cells were seeded at a density of 1 × 10^5 cells/well on a six-well plate and allowed to adhere for 24 h. […] Both population cells (the attached and detached) were collected and centrifuged at 400× g for 5 min at 4 °C. After centrifugation, the cells were washed twice with 0.9% NaCl and subsequently fixed in 500 μL of 70 % cold ethanol overnight.
Before analysis, the fixed cells underwent another centrifugation step at 850× g for 5 min at 4 °C and were washed with PBS. Following the washes, the cells were incubated with 50 μL of RNase (100 μg/mL) and 200 μL of propidium iodide (PI) (50 μg/mL) at 37 °C for 30 min in the dark. Finally, 100 μL of PBS was added to each sample. Flow cytometry (Becton Dickinson FACS Verse, Franklin Lakes, NJ, USA) was then used to analyze the cell cycle distribution, identifying cells in various stages including sub-G1, G0/G1, S, and G2/M phases. Each assay was performed in quadruplicate.

HCT116 cells [2] = test: Annexin V-FITC/PI apoptosis flow cytometry, HCT116; assay type: cell-based, human; details: representative dot plot, Figure 4C, IC50, 72 h
Protocol: (§2) To analyze the number of cells in early apoptosis, late apoptosis, or necrosis, A549, MiaPaca-2, and HCT-116 cell lines were cultured in 6-well plates with a seeding density of 1 × 10^5 cells per well. These cells were then treated with selected compounds (4, 5, and 8) at their respective IC50 concentrations and incubated for 72 h. Subsequently, a commercially available kit, the FITC: Annexin V Apoptosis Detection Kit I from BD Biosciences Pharmingen in San Jose, CA, USA, was utilized to assess apoptosis. After 72 h the cells were harvested, washed, and labeled with Annexin V-FITC and propidium iodide (PI) following the manufacturer’s protocol (Becton Dickinson), as previously described. The stained cells were analyzed by flow cytometry. The cells were identified as early apoptotic (Annexin V+/PI−) or late apoptotic/necrotic (Annexin V+/PI+).

A549 (lung cancer) = test: MTT assay, A549 cells; assay type: cell-based, human; details: Homo sapiens, read-out: IC50 A549
Protocol: as §1

HCT116 (colon cancer) = test: MTT assay, HCT116 cells; assay type: cell-based, human; details: for IC50: Homo sapiens, read-out: IC50 HCT116; for SI HCT116: SI = IC50 for normal cell line (HaCaT)/IC50 cancer cell line
Protocol: as §1

A549 cells = test: Annexin V-FITC/PI apoptosis flow cytometry, A549; assay type: cell-based, human; details: for A549: Alive / A549: Early Apoptotic / A549: Necrotic / A549: Necrotic/Late Apoptotic: representative dot plot, Figure 4A, IC50, 72 h
Protocol: as §2

S. aureus NCTC 4163 = test: MIC broth microdilution; assay type: cell-based; details: Staphylococcus aureus, read-out: MIC S. aureus NCTC 4163
From the text: (§3) To evaluate the antibacterial effectiveness of chloroquinobenzothiazine derivatives, various bacterial strains from international microbe collections such as the American Type Culture Collection (ATCC) and the National Collection of Type Culture (NCTC) were examined, alongside a panel of clinical rods. This included two Gram-negative organisms, E. coli ATCC 25922 and P. aeruginosa ATCC 15442, and a series of six Gram-positive strains: S. aureus NCTC 4163; S. aureus ATCC 29213, 25923, and 6538; and S. epidermidis ATCC 12228 and 35984. […] The MIC was determined using the two-fold serial broth microdilution method in 96-well microtitration plates containing Mueller-Hinton II broth medium (Becton Dickinson, Franklin Lakes, NJ, USA). The final inoculum for all tested bacteria was adjusted to […] (colony-forming units per milliliter). The stock solution of the tested compounds was prepared in dimethyl sulfoxide (DMSO) and diluted to a maximum of 1% solvent content with a sterile medium.

[3] = tested on: S. epidermidis ATCC 35984; test: MIC broth microdilution; assay type: cell-based; details: for MIC: Staphylococcus epidermidis, read-out: MIC S. epidermidis ATCC 35984
From the text: as §3

S. aureus ATCC 25923 = test: MIC broth microdilution; assay type: cell-based; details: Staphylococcus aureus, read-out: MIC S. aureus ATCC 25923
From the text: as §3

S. aureus ATCC 6538 = test: MIC broth microdilution; assay type: cell-based; details: Staphylococcus aureus, read-out: MIC S. aureus ATCC 6538
From the text: as §3

P. aeruginosa ATCC 15442 = test: MIC broth microdilution; assay type: cell-based; details: Pseudomonas aeruginosa, read-out: MIC P. aeruginosa ATCC 15442
From the text: as §3

[4] = tested on: S. epidermidis ATCC 12228; test: MIC broth microdilution; assay type: cell-based; details: Staphylococcus epidermidis, read-out: MIC S. epidermidis ATCC 12228
From the text: as §3

S. aureus ATCC 29213 = test: MIC broth microdilution; assay type: cell-based; details: Staphylococcus aureus, read-out: MIC S. aureus ATCC 29213
From the text: as §3

E. coli ATCC 25922 = test: MIC broth microdilution; assay type: cell-based; details: Escherichia coli, read-out: MIC E. coli ATCC 25922
From the text: as §3

[5] = tested on: HaCaT (immortalized human keratinocytes); test: MTT assay, HaCaT normal cells; assay type: cell-based; details: Homo sapiens, HaCaT, 72 h
Protocol: as §1

[6] = tested on: MDA-MB-231 (breast cancer); test: MTT assay, MDA-MB-231 cells; assay type: cell-based, human; details: for IC50: Homo sapiens, read-out: IC50 MDA; for SI MDA: SI = IC50 for normal cell line (HaCaT)/IC50 cancer cell line
Protocol: as §1

[7] = tested on: MiaPaCa-2 (pancreas cancer); test: MTT assay, MiaPaCa-2 cells; assay type: cell-based, human; details: for IC50: Homo sapiens, read-out: IC50 MiaPaCa-2; for SI MiaPaCa-2: SI = IC50 for normal cell line (HaCaT)/IC50 cancer cell line
Protocol: as §1

Compound: O=C(NCCCl)NCCCN1c2cc(Cl)ccc2Sc2cc3ccccc3nc21 [Compound 20, 1-(3-(8-Chloroquino[3,2-b]benzo[1,4]thiazin-6-yl)propyl)-3-(2-chloroethyl)urea]
- IC50 (PC3 (prostate cancer); PC-3, 72 h): 34.8 ± 9.8 µM
- SI PC3 (PC3 (prostate cancer)): 2.8
- increase in the cell amount at the sub-G1 phase, HCT116 (HCT116 cells [1]): 3 fold
- HCT-116: Alive (HCT116 cells [2]): 83.79%
- HCT-116: Early Apoptotic (HCT116 cells [2]): 7.24%
- HCT-116: Necrotic (HCT116 cells [2]): 4.80%
- HCT-116: Necrotic/Late Apoptotic (HCT116 cells [2]): 4.17%
- IC50 (A549 (lung cancer); A549, 72 h): 9.3 ± 1.2 µM
- IC50 (HCT116 (colon cancer); HCT-116, 72 h): 10.4 ± 1.6 µM
- SI HCT116 (HCT116 (colon cancer)): 8.8
- A549: Alive (A549 cells): 88.24%
- A549: Early Apoptotic (A549 cells): 0.13%
- A549: Necrotic (A549 cells): 10.74%
- A549: Necrotic/Late Apoptotic (A549 cells): 0.89%
- MIC (S. aureus NCTC 4163; NCTC4163, 19 h): 8 µg/mL (≈ 17.9 µM)
- MIC S. epidermidis ATCC 35984 ([3]; 19 h, 35 °C): 4 µg/mL (≈ 8.94 µM)
- MIC ([3]; ATCC35984, 19 h): 4 µg/mL (≈ 8.94 µM)
- MIC (S. aureus ATCC 25923; ATCC25923, 19 h): 8 µg/mL (≈ 17.9 µM)
- MIC (S. aureus ATCC 6538; ATCC6538, 19 h): 8 µg/mL (≈ 17.9 µM)
- MIC (P. aeruginosa ATCC 15442; ATCC15442, 19 h): > 256 µg/mL
- MIC ([4]; ATCC12228, 19 h): 8 µg/mL (≈ 17.9 µM)
- MIC (S. aureus ATCC 29213; ATCC29213, 19 h): 8 µg/mL (≈ 17.9 µM)
- MIC (E. coli ATCC 25922; ATCC25922, 19 h): > 256 µg/mL
- IC50 ([5]; read-out: IC50 HaCaT (Table 3)): > 100 µM
- IC50 ([6]; MDA-MB-231, 72 h): 48.6 ± 7.3 µM
- SI MDA [6]: 2.0
- IC50 ([7]; MIA PaCa-2, 72 h): 23.2 ± 2.7 µM
- SI MiaPaCa-2 [7]: 4.3

- IC50 (PC3 (prostate cancer); PC-3, MTT, 72 h): 48.6 ± 4.7 µM
- IC50 (A549 (lung cancer); A549, MTT, 72 h, mean SD): 9.45 ± 1.3 µM
- IC50 (HCT116 (colon cancer); HCT-116, MTT, 72 h): > 100 µM
- MIC (S. aureus NCTC 4163; NCTC4163, 19 h, 35 °C): > 256 µg/mL
- MIC ([3]; ATCC35984, 19 h, 35 °C): > 256 µg/mL
- MIC (S. aureus ATCC 25923; ATCC25923, 19 h, 35 °C): > 256 µg/mL
- MIC (S. aureus ATCC 6538; ATCC6538, 19 h, 35 °C): > 256 µg/mL
- MIC (P. aeruginosa ATCC 15442; ATCC15442, 19 h, 35 °C): > 256 µg/mL
- MIC ([4]; ATCC12228, 19 h, 35 °C): > 256 µg/mL
- MIC (S. aureus ATCC 29213; ATCC29213, 19 h, 35 °C): > 256 µg/mL
- MIC (E. coli ATCC 25922; ATCC25922, 19 h, 35 °C): > 256 µg/mL
- IC50 ([6]; MDA-MB-231, MTT, 72 h, MDA-MB231): > 100 µM
- IC50 ([7]; MIA PaCa-2, MTT, 72 h): > 100 µM
Compound: Cc1ccc(S(=O)(=O)NCCCCN2c3cc(Cl)ccc3Sc3cc4ccccc4nc32)cc1 [Compound 25, N-(4-(8-Chloroquino[3,2-b]benzo[1,4]thiazin-6-yl)butyl)-4-methylbenzenesulfonamide]
- SI PC3 (PC3 (prostate cancer)): 2.0
- SI HCT116 (HCT116 (colon cancer)): 1.0
- cells in late apoptosis or necrosis, A549 (A549 cells; compound at IC50, 72 h): 82%
- A549: Alive (A549 cells): 16.32%
- A549: Early Apoptotic (A549 cells): 0.60%
- A549: Necrotic (A549 cells): 32.75%
- A549: Necrotic/Late Apoptotic (A549 cells): 50.34%
- IC50 ([5]; MTT, normal cells, read-out: IC50 HaCaT (Table 3)): < 100 µM
- IC50 ([5]; MTT, normal cells, read-out: IC50 HaCaT (Table 4)): > 100 µM
- SI MDA [6]: 1.0
- SI MiaPaCa-2 [7]: 1.0
